# Laboratory results reported in US9784732B2, “Acidic environment-detecting fluorescent probe” (THE UNIVERSITY OF TOKYO, priority 2011, dated 2017).
# Read-outs that look alike come from different tables or passages of the source.
# Tests used:
# [1] = in ethanol; cited from earlier work
# [2] = Optical properties and fluorescence quantum yield; assay type: physicochemical; conditions: for Maximum Absorption Wavelength (nm) / Maximum Emission Wavelength (nm): 200 mM sodium phosphate buffer, 0.03% (v/v) DMSO
# Method: (§1) In order to measure absorption and fluorescence spectra, a dye compound was dissolved in dimethyl sulfoxide (DMSO, fluorescent analysis-grade, Dojindo) to obtain 1 mM of standard solution. Using a UV-1650 PCUV/V spectrometer (Shimadzu) and an FP-6600 fluorescence spectrometer (JASCO), the optical properties of the dye compound in 200 mM of a sodium phosphate buffer solution containing 0.03% (v/v) DMSO as a cosolvent were measured. In order to determine fluorescence quantum yield (Φf1), the value (Φf1=0.65) of Rhodamine B in ethanol was used as a standard. The value was calculated according to the following formula. Φx/Φst=[Ast/Ax][nx^2/nst^2][Dx/Dst]
# The absorption spectrum and fluorescence emission spectrum when solution pH was altered from 2.0 to 10.0 for Compound A obtained in Example 1 were obtained according to the measurement method described above. Absorption spectra are shown in FIG. 1-1, fluorescence emission spectra in FIG. 1-2, and a pH profile showing pH-induced changes in fluorescent intensity in FIG. 1-3. The maximum absorption wavelength, maximum emission wavelength, fluorescent quantum yield, and pKa when pH is changed from 10.0 to 4.0 are shown in table 1.
# [3] = pH profile of fluorescent intensity (pKa) in phosphate buffer; assay type: physicochemical; conditions: sodium phosphate buffer, from pH profile of fluorescent intensity
# Method: as §1
# The absorption spectrum and fluorescence emission spectrum when solution pH was altered from 2.0 to 10.0 for Compound A obtained in Example 1 were obtained according to the measurement method described above.
# Using a 100 mM phosphate buffer solution of Compound 1 (500 nM) obtained in Example 2, pH was altered from 4.39 to 9.24, and the fluorescence spectrum was measured.
# A fitted curve for the pH profile was obtained according to the following formula.
# Next, in order to investigate the reversibility of pH changes in Dye Conjugate 1, the fluorescent intensity ratio (fluorescent intensity at 540 nm/fluorescent intensity at 488 nm) was calculated for a case in which pH was cycled between 7.1 and 3.2 every 30 seconds.
# HER2 = assay: High-throughput evaluation of HER2 downregulation; assay type: cell-based; conditions: 17-AAG 10 μM with Compound 3 30 nm; SKOV3 cells expressing HER2-HaloTag; five hours; versus DMSO
# Method: The pH-sensitive fluorescent probe Compound 3 and 17-AAG (Wako Pure Chemicals) were diluted with water. An equal amount of DMSO (Sigma-Aldrich) was added as a control for the 17-AAG. SKOV3 cells expressing the HER2-HaloTag were suspended in RPMI (Nacalai Tesque) containing 2% FBS (CCB), implanted in a 384-well imaging plate (PerkinElmer), and cultured overnight at 37° C. in a 5% CO2 atmosphere.
# Compound 3 and 17-AAG were added to […] of a 384-well imaging plate implanted with SKOV3 cells expressing the HER2-HaloTag to respective final concentrations of 30 nm and 10 μM. DMSO alone was added to 32 wells instead of 17-AAG as a control. Fluorescence values at 580 nm induced by 535 excitation were measured using a plate reader, after which culturing was performed at 37° C. in a 5% CO2 atmosphere for five hours, and fluorescence values were again measured using the plate reader. […] In this way, it is possible to simply evaluate downregulation of the cancer-related receptor HER2 via fluorescence values.
compound,measurement,setting,value
CCN(CC)c1ccc2c(-c3ccccc3C(=O)O)c3ccc(=[N+](CC)CC)cc-3oc2c1.[Cl-] [Rhodamine B],Fluorescence Quantum Yield of the standard,[1],0.65
"CN1CCN(c2ccc3c(-c4ccccc4C(=O)O)c4ccc(=[N+]5CCN(C)CC5)cc-4oc3c2)CC1.[Cl-] [Compound A, 1-(9-(2-carboxyphenyl)-6-(4-methylpiperazine-1-yl)-3H-xanthene-3-ylidene)-4-methylpiperazine-1-ium chloride]",Shift of maximum absorption wavelength to shorter wavelength,[2]; deprotonated type (pH 10.0) to protonated type (pH 4.0),20 nm
same,Maximum Absorption Wavelength (nm),[2]; pH 4.0,527 nm
same,Maximum Emission Wavelength (nm),[2]; pH 4.0,554 nm
same,Fluorescence Quantum Yield,"[2]; pH 10.0 (deprotonated type), standard Rhodamine B in ethanol",0.024
same,Maximum Absorption Wavelength (nm),[2]; pH 10.0,547 nm
same,Maximum Emission Wavelength (nm),[2]; pH 10.0,575 nm
same,pKa,"[3]; read-out: pKa (higher, pKa2)",6.8
same,pKa,"[3]; read-out: pKa (lower, pKa1)",5.4
C=CCNC1=C2C[C@@H](C)C[C@H](OC)[C@H](O)[C@@H](C)/C=C(\C)[C@H](OC(N)=O)[C@@H](OC)/C=C\C=C(/C)C(=O)NC(=CC1=O)C2=O [Compound 17-AAG],Difference in fluorescence values before and after culturing (F5−F0),HER2,large increase in fluorescence values
"CN1CCN(c2ccc3c(-c4ccccc4C(=O)N(C)CC(=O)NCCOCCOCCOCCC(=O)[O-])c4ccc(=[N+]5CCN(C)CC5)cc-4oc3c2)CC1 [Compound D, 2-methyl-1-(2-(3-(4-methylpiperazine-1-ium-1-ylidene)-6-(4-methylpiperazine-1-yl)-3H-xanthene-9-yl)phenyl)-1,4-dioxo-8,11,14-trioxa-2,5-diazaheptadecane-17-oate]",pKa,"[3]; read-out: pKa (higher, pKa2)",6.6
same,pKa,"[3]; read-out: pKa (lower, pKa1)",5.3
